The values below come from US20070128217A1 (priority 2003, published 2007).

Experiment [1] deals with antibodies in sera from SARS patients (sera 1a, 1b, 2, 6, 37, 62, London, SARS-yellow, SARS-green). Format: binding, human. Also on record: Binding of serum 6 to linear peptides of protein X1 of SARS-CoV Urbani / Binding of serum 37 to linear peptides of protein X1 of SARS-CoV Urbani / Binding of serum 6 to looped/cyclic peptide (PEPSCAN-ELISA) / Binding of serum 37 to looped/cyclic peptide (PEPSCAN-ELISA) / Binding of serum 37 to looped/cyclic peptides of protein X1 of SARS-CoV Urbani / Binding of serum 6 to linear peptides of protein X2 / Binding of serum 37 to linear peptides of protein X2 / Binding of serum 37 to looped/cyclic peptides of protein X2 of SARS-CoV Urbani / Binding of serum 6 to linear peptides of protein M of SARS-CoV Urbani / Binding of serum 37 to linear peptides of protein M of SARS-CoV Urbani / Binding of serum 6 to looped/cyclic peptides of protein M of SARS-CoV Urbani / Binding of serum 37 to looped/cyclic peptides of protein M of SARS-CoV Urbani / Binding of serum 6 to linear peptides of protein X3 of SARS-CoV Urbani / Binding of serum 37 to linear peptides of protein X3 of SARS-CoV Urbani / Binding of serum 37 to looped/cyclic peptides of protein X3 of SARS-CoV Urbani / Binding of serum 6 to linear peptides of protein X4 of SARS-CoV Urbani / Binding of serum 37 to linear peptides of protein X4 of SARS-CoV Urbani / Binding of serum 37 to looped/cyclic peptides of protein X4 of SARS-CoV Urbani / Binding of serum 6 to linear peptides of protein X5 of SARS-CoV Urbani / Binding of serum 37 to linear peptides of protein X5 of SARS-CoV Urbani / Binding of serum 37 to looped/cyclic peptides of protein X5 of SARS-CoV Urbani / Binding of serum 6 to linear peptides of protein N of SARS-CoV Urbani / Binding of serum 37 to linear peptides of protein N of SARS-CoV Urbani / Binding of serum 6 to linear peptide (PEPSCAN-ELISA) / Binding of serum 1a to looped/cyclic peptides of protein N of SARS-CoV Urbani / Binding of serum 1b to looped/cyclic peptides of protein N of SARS-CoV Urbani / Binding of serum 2 to looped/cyclic peptides of protein N of SARS-CoV Urbani / Binding of serum 6 to looped/cyclic peptides of protein N of SARS-CoV Urbani / Binding of serum 37 to looped/cyclic peptides of protein N of SARS-CoV Urbani / Binding of serum 62 to looped/cyclic peptides of protein N of SARS-CoV Urbani / Binding of serum London to looped/cyclic peptides of protein N of SARS-CoV Urbani / Binding of serum SARS-green to looped/cyclic peptides of protein N of SARS-CoV Urbani: unit not given here.

Experiment [2] has as its system control sera (pooled serum of ten healthy LUMC hospital workers; commercial negative donor pooled serum from the Dutch bloodbank). Format: binding, human. Also on record: Binding of Control serum LUMC to linear peptides / Binding of Control serum Blood-bank to linear peptides / Binding of Control serum LUMC to looped peptides / Binding of Control Serum Blood-Bank to Looped peptides / Binding of Control serum LUMC to linear peptides of the protein M of SARS-CoV Urbani / Binding of Control serum Blood-bank to linear peptides of the protein M of SARS-CoV Urbani / Binding of Control serum LUMC to looped peptides of the protein M of SARS-CoV Urbani / Binding of Control Serum Blood-Bank to Looped peptides of the protein M of SARS-CoV Urbani: unit not given here.

For experiment [3], the system named is rabbit serum obtained by immunizing a rabbit with the SARS-CoV strain Frankfurt 1. Format: binding. Also on record: Binding of a rabbit serum to linear peptides / Binding of a rabbit serum to looped peptides / Rabbit serum linear peptides / Rabbit serum looped peptides / Binding of a rabbit serum to linear peptides of protein N of SARS-CoV Urbani (Rabbit serum linear peptides) / Binding of a rabbit serum to looped/cyclic peptides of protein N of SARS-CoV Urbani (Rabbit serum looped peptides): unit not given here.

In the case of KDYVVVHGYFTEVYY, in experiment [1], the “Binding of serum 1a to linear peptides of protein X1 of SARS-CoV Urbani” value is 0.7, the “Binding of serum 1a to looped/cyclic peptides of protein X1 of SARS-CoV Urbani” value was 0.5, the “Binding of serum 1b to linear peptides of protein X1 of SARS-CoV Urbani” value was found to be 0.6 and the “Binding of serum 1b to looped/cyclic peptides of protein X1 of SARS-CoV Urbani” value is recorded as 0.4. In addition, in experiment [1], the “Binding of serum 2 to linear peptides of protein X1 of SARS-CoV Urbani” value stood at 0.5, the “Binding of serum 2 to looped/cyclic peptides of protein X1 of SARS-CoV Urbani” value is reported as 0.4, the “Binding of serum 6 to linear peptides of protein X1 of SARS-CoV Urbani” value is given as 0.4 and the “Binding of serum 6 to looped/cyclic peptides of protein X1 of SARS-CoV Urbani” value is recorded as 0.2. In experiment [1], the “Binding of serum 37 to linear peptides of protein X1 of SARS-CoV Urbani” value was determined as 0.6, the “Binding of serum 37 to looped/cyclic peptides of protein X1 of SARS-CoV Urbani” value was 0.6, the “Binding of serum 62 to linear peptides of protein X1 of SARS-CoV Urbani” value turned out to be 0.5 and the “Binding of serum 62 to looped/cyclic peptides of protein X1 of SARS-CoV Urbani” value came to 0.5. In experiment [1], the “Binding of serum London to linear peptides of protein X1 of SARS-CoV Urbani” value is 0.2, the “Binding of serum London to looped/cyclic peptides of protein X1 of SARS-CoV Urbani” value was found to be 0.2, the “Binding of serum SARS-green to linear peptides of protein X1 of SARS-CoV Urbani” value was 0.2 and the “Binding of serum SARS-green to looped/cyclic peptides of protein X1 of SARS-CoV Urbani” value turned out to be 0.2. In addition, in experiment [1], the “Binding of serum SARS-yellow to linear peptides of protein X1 of SARS-CoV Urbani” value amounted to 0.3 and the “Binding of serum SARS-yellow to looped/cyclic peptides of protein X1 of SARS-CoV Urbani” value amounted to 0.5. In experiment [2], the “Binding of Control Serum Blood-Bank to Looped peptides” value is 0.5, the “Binding of Control serum Blood-bank to linear peptides” value worked out at 0.5, the “Binding of Control serum LUMC to linear peptides” value worked out at 0.6 and the “Binding of Control serum LUMC to looped peptides” value was determined as 0.5. In experiment [3], the “Binding of a rabbit serum to linear peptides” value came to 0.1 and the “Binding of a rabbit serum to looped peptides” value was 0.5.

In the case of KIILFLTLIVFTSCE, in experiment [1], the “Binding of serum 1a to linear peptides of protein X4 of SARS-CoV Urbani” value turned out to be 0.8, the “Binding of serum 1a to looped/cyclic peptides of protein X4 of SARS-CoV Urbani” value is listed as 0.9, the “Binding of serum 1b to linear peptides of protein X4 of SARS-CoV Urbani” value is on record as 0.9 and the “Binding of serum 1b to looped/cyclic peptides of protein X4 of SARS-CoV Urbani” value stood at 0.2. In experiment [1], the “Binding of serum 2 to linear peptides of protein X4 of SARS-CoV Urbani” value stood at 0.7, the “Binding of serum 2 to looped/cyclic peptides of protein X4 of SARS-CoV Urbani” value was 0.8, the “Binding of serum 6 to linear peptides of protein X4 of SARS-CoV Urbani” value is 0.7 and the “Binding of serum 6 to looped/cyclic peptides of protein X4 of SARS-CoV Urbani” value came to 0.6. In addition, in experiment [1], the “Binding of serum 37 to linear peptides of protein X4 of SARS-CoV Urbani” value was 1.1, the “Binding of serum 37 to looped/cyclic peptides of protein X4 of SARS-CoV Urbani” value was 0.9, the “Binding of serum 62 to linear peptides of protein X4 of SARS-CoV Urbani” value is on record as 0.9 and the “Binding of serum 62 to looped/cyclic peptides of protein X4 of SARS-CoV Urbani” value worked out at 0.9. Besides, in experiment [1], the “Binding of serum London to linear peptides of protein X4 of SARS-CoV Urbani” value worked out at 0.8, the “Binding of serum London to looped/cyclic peptides of protein X4 of SARS-CoV Urbani” value was 0.4, the “Binding of serum SARS-green to linear peptides of protein X4 of SARS-CoV Urbani” value was determined as 0.7 and the “Binding of serum SARS-green to looped/cyclic peptides of protein X4 of SARS-CoV Urbani” value was 0.7. Besides, in experiment [1], the “Binding of serum SARS-yellow to linear peptides of protein X4 of SARS-CoV Urbani” value is 0.9 and the “Binding of serum SARS-yellow to looped/cyclic peptides of protein X4 of SARS-CoV Urbani” value was found to be 0.8. In experiment [2], the “Binding of Control Serum Blood-Bank to Looped peptides” value was 0.8, the “Binding of Control serum Blood-bank to linear peptides” value is given as 0.8, the “Binding of Control serum LUMC to linear peptides” value is given as 0.9 and the “Binding of Control serum LUMC to looped peptides” value stood at 0.9. For the same sequence, in experiment [3], the “Rabbit serum linear peptides” value came out at 0.7 and the “Rabbit serum looped peptides” value is recorded as 0.9.

In the case of KILVRYNTRGNTYST, in experiment [1], the “Binding of serum 1a to linear peptides of protein X5 of SARS-CoV Urbani” value is recorded as 0.7, the “Binding of serum 1a to looped/cyclic peptides of protein X5 of SARS-CoV Urbani” value worked out at 0.5, the “Binding of serum 1b to linear peptides of protein X5 of SARS-CoV Urbani” value amounted to 0.5 and the “Binding of serum 1b to looped/cyclic peptides of protein X5 of SARS-CoV Urbani” value worked out at 0.3. In experiment [1], the “Binding of serum 2 to linear peptides of protein X5 of SARS-CoV Urbani” value worked out at 0.7, the “Binding of serum 2 to looped/cyclic peptides of protein X5 of SARS-CoV Urbani” value was 0.5, the “Binding of serum 6 to linear peptides of protein X5 of SARS-CoV Urbani” value came out at 0.7 and the “Binding of serum 6 to looped/cyclic peptides of protein X5 of SARS-CoV Urbani” value was 0.5. In experiment [1], the “Binding of serum 37 to linear peptides of protein X5 of SARS-CoV Urbani” value amounted to 0.7, the “Binding of serum 37 to looped/cyclic peptides of protein X5 of SARS-CoV Urbani” value is on record as 0.5, the “Binding of serum 62 to linear peptides of protein X5 of SARS-CoV Urbani” value was 0.8 and the “Binding of serum 62 to looped/cyclic peptides of protein X5 of SARS-CoV Urbani” value is recorded as 0.7. In experiment [1], the “Binding of serum London to linear peptides of protein X5 of SARS-CoV Urbani” value turned out to be 0.7, the “Binding of serum London to looped/cyclic peptides of protein X5 of SARS-CoV Urbani” value stood at 0.3, the “Binding of serum SARS-green to linear peptides of protein X5 of SARS-CoV Urbani” value is listed as 0.5 and the “Binding of serum SARS-green to looped/cyclic peptides of protein X5 of SARS-CoV Urbani” value amounted to 0.3. Besides, in experiment [1], the “Binding of serum SARS-yellow to linear peptides of protein X5 of SARS-CoV Urbani” value was found to be 0.1 and the “Binding of serum SARS-yellow to looped/cyclic peptides of protein X5 of SARS-CoV Urbani” value is 0.6. In addition, in experiment [2], the “Binding of Control Serum Blood-Bank to Looped peptides” value was 0.5, the “Binding of Control serum Blood-bank to linear peptides” value stood at 0.8, the “Binding of Control serum LUMC to linear peptides” value turned out to be 0.6 and the “Binding of Control serum LUMC to looped peptides” value came out at 0.6. Besides, in experiment [3], the “Rabbit serum linear peptides” value was 0.7 and the “Rabbit serum looped peptides” value is given as 0.4.

As for KLFIRQEEVQQELYS, in experiment [1], the “Binding of serum 1a to linear peptides of protein X4 of SARS-CoV Urbani” value worked out at 0.7, the “Binding of serum 1a to looped/cyclic peptides of protein X4 of SARS-CoV Urbani” value was found to be 0.7, the “Binding of serum 1b to linear peptides of protein X4 of SARS-CoV Urbani” value is given as 0.5 and the “Binding of serum 1b to looped/cyclic peptides of protein X4 of SARS-CoV Urbani” value worked out at 0.6. Further, in experiment [1], the “Binding of serum 2 to linear peptides of protein X4 of SARS-CoV Urbani” value is reported as 0.4, the “Binding of serum 2 to looped/cyclic peptides of protein X4 of SARS-CoV Urbani” value is 0.6, the “Binding of serum 6 to linear peptides of protein X4 of SARS-CoV Urbani” value is recorded as 0.5 and the “Binding of serum 6 to looped/cyclic peptides of protein X4 of SARS-CoV Urbani” value is on record as 0.4. Besides, in experiment [1], the “Binding of serum 37 to linear peptides of protein X4 of SARS-CoV Urbani” value turned out to be 0.7, the “Binding of serum 37 to looped/cyclic peptides of protein X4 of SARS-CoV Urbani” value is recorded as 0.7, the “Binding of serum 62 to linear peptides of protein X4 of SARS-CoV Urbani” value was determined as 0.8 and the “Binding of serum 62 to looped/cyclic peptides of protein X4 of SARS-CoV Urbani” value worked out at 0.6. Also, in experiment [1], the “Binding of serum London to linear peptides of protein X4 of SARS-CoV Urbani” value was 0.7, the “Binding of serum London to looped/cyclic peptides of protein X4 of SARS-CoV Urbani” value is on record as 0.3, the “Binding of serum SARS-green to linear peptides of protein X4 of SARS-CoV Urbani” value is 0.6 and the “Binding of serum SARS-green to looped/cyclic peptides of protein X4 of SARS-CoV Urbani” value is on record as 0.8. Besides, in experiment [1], the “Binding of serum SARS-yellow to linear peptides of protein X4 of SARS-CoV Urbani” value came to 0.4 and the “Binding of serum SARS-yellow to looped/cyclic peptides of protein X4 of SARS-CoV Urbani” value is 0.6. Also, in experiment [2], the “Binding of Control Serum Blood-Bank to Looped peptides” value came to 0.8, the “Binding of Control serum Blood-bank to linear peptides” value stood at 0.5, the “Binding of Control serum LUMC to linear peptides” value amounted to 0.5 and the “Binding of Control serum LUMC to looped peptides” value is on record as 0.8. For the same sequence, in experiment [3], the “Rabbit serum linear peptides” value amounted to 0.5 and the “Rabbit serum looped peptides” value is given as 0.5.
